Source: patent US7981875B2, “2″ oxo-voruscharin and derivatives thereof” (priority 2002, dated 2011)
Where two headings read alike, the source gives them in different places.

Experiments:
[1] = Maximum Tolerated Dose in healthy mice; type: in vivo; conditions: single administration in mice, healthy animals, 14 days post-injection
Method: The Maximum Tolerated Dose (MTD) of a given drug is defined as the maximum amount of a drug which can be administered acutely (i.e. in one i.p., i.v., s.c. or per os single dose) to healthy animals, i.e. animals not grafted with tumors. The survival times and weights of the animals are recorded up to 14 days post-injection. Five different doses of each drug are used for the determination of the MTD index. When the MTD index is higher than 160 mg/kg (i.p. administration) the drug is usually considered to be non-toxic, and the highest dose administered to tumor-bearing mice is MTD/2=80 mg/kg. Each experimental group was composed of 3 mice for the determination of the MTD index.

A549 = experiment: MTT test, overall cell growth; type: cell-based, human; conditions: 72 hours of incubation
Method: (§1) In order to characterize the in vitro activities of the compounds according to the invention, MTT tests were carried out. The MTT test, which is a well-known test in the art, is an indirect technique that rapidly measures, i.e. within 5 days, the effect of a given product on the overall cell growth. This test measures the number of metabolically active living cells that are able to transform the MTT product (3-(4,5-dimethylthiazol-2-yl)-2,5 diphenyl tetrazolium bromide), having a yellowish color, to the blue product formazan dye by mitochondrial reduction. The amount of formazan obtained at the end of the experiment is measured with a spectrophotometer and is directly proportional to the number of living cells. Determination of the optical density enables a quantitative measurement of the effect of the investigated compounds as compared to the control condition (untreated cells) and to compare it to other reference compound. In the following examples different compounds according to the invention were tested and compared to the reference compound being uscharin.
(§2) Six human cancer cell lines, described in Table C, were tested in the presence of compounds according to the invention. These cell lines covered four histological cancer types, being Glioma, colon, lung and bladder cancer. The cells were allowed to grow in 96-well micro wells with a flat bottom with an amount of 100 μl of cell suspension per well in reason to 4000 cells/well depending on cell type. Each cell line was seeded in its own cell culture medium (Table C).
(§3) After a 24-hour period of incubation at 37° C., the culture medium is replaced by 100 μl of fresh medium in which the compound to be tested has been dissolved at different required concentrations. Different compounds were tested at 10^−9 M, 5×10^−9 M, 10^−8 M, 5×10^−8 M, 10^−7 M, 5×10^−7 M, 10^−6 M, 5×10^−6 M et 10^−5 M. Each experimental condition is carried out in hexaplicate. The compounds tested are 2″ oxo-voruscharin, and compounds B, C, D, E, H and I represented in Table B above.
(§4) After 72 hours of incubation at 37° C. with the compound (experimental conditions) or without the compound (control condition), the medium was replaced by 100 μl MTT at the concentration of 1 mg/ml dissolved in RPMI. The micro wells were subsequently incubated during 3 hours at 37° C. and centrifuged at 400 g during 10 minutes. The MTT was removed and formazan crystals formed, were dissolved in 100 μl DMSO. The micro wells were shaken for 5 minutes and read on a spectrophotometer at the wavelengths of 570 nm corresponding to the maximum formazan absorbance wavelength, and of 630 nm, which is the background noise wavelength.
(§5) For each experimental condition, the mean OD associated with the SEM (standard error of the mean) for each condition (6 wells) was calculated. The percentage of remaining living cells in comparison with the control was calculated. Results of these experiments are represented in FIGS. 2 to 8.

Hs683 = experiment: MTT test, overall cell growth; type: cell-based, human
Method: as §1, §2, §3, §4, §5

HCT-15 = experiment: MTT test, overall cell growth; type: cell-based, human
Method: as §1, §2, §3, §4, §5

J82 = experiment: MTT test, overall cell growth; type: cell-based, human
Method: as §1, §2, §3, §4, §5

U-373 MG = experiment: MTT test, overall cell growth; type: cell-based, human; conditions: U-373, MTT, 72 hours of incubation
Method: as §1, §2, §3, §4, §5

LoVo = experiment: MTT test, overall cell growth; type: cell-based, human; conditions: 72 hours of incubation
Method: as §1, §2, §3, §4, §5

[2] = tested on: HCT-15 human cancer cells; experiment: Cell cycle kinetics by flow cytometry (propidium iodide); type: cell-based; parameters: key to Effect on cell cycle kinetics, G0/G1 / Effect on cell cycle kinetics, S / Effect on cell cycle kinetics, G2/M: n.s. means no significant; ** means highly significant; *** very highly significant
Method: (§6) Cell lines were seeded in flasks (25 cm^2 area) containing 7 ml of culture medium. After 48 hours incubation at 37° C. the cell culture medium was replaced by a fresh medium in which the substance to be tested had been dissolved at the different concentrations required. Uscharin and 2″ oxo-voruscharin were tested at concentrations, which kill 50% and 30% of the cell population, represented by the IC50 and IC30 values, respectively. After 24 or 72 hours of treatment the cells were harvested in suspension, washed in Phosphate Buffer Saline (PBS) at 4° C. and permeabilized with 70% ethanol (at 4° C.) overnight at −20° C. The cells were then washed with PBS and incubated with propidium iodide solution (80 μg/ml) for 30 minutes at 37° C. and afterward at 4° C. overnight. Ribonuclease A (3% V/V) was added to the PI solution to break doubled-stranded RNA. The portrait of the cell cycle was established for each sample. Software incorporated into the flow cytometer was used to define precisely the percentage of cells in the different cell cycle phases. Each cell cycle phase was reported in terms of peak surface and calculated as a percentage. The surface of the entire cell cycle was 100%. Each experiment was carried out 3 times. The mean percentage of each different phase and the standard error of the related mean were calculated. Each cell cycle phase of a given condition was compared with the same cell cycle phase of control. The non-treated cells constituted control.
(§7) Uscharin and 2″ oxo-voruscharin are highly toxic to human tumor cell lines. The concentrations used in the flow cytometry experiments were chosen in accordance with the MTT results (example 2). Three human cancer cell lines, Hs683, J82, and HCT-15 were tested and doses that killed 30 and 50 percent of the cells were applied to investigate whether uscharin and 2″ oxo-voruscharin promoted an accumulation in one of the cell cycle phases when the cell cultures were treated for 24 or 72 hours with increasing concentrations of the compounds. The IC50 and IC30 values for uscharin and 2″ oxo-voruscharin corresponding to the three tested cell lines are represented in Table E.

Hs683 human cancer cells = experiment: as above; type: cell-based; parameters: key to Effect on cell cycle kinetics, G0/G1 / Effect on cell cycle kinetics, S / Effect on cell cycle kinetics, G2/M: n.s. means no significant; ** means highly significant; *** very highly significant
Method: as §6, §7

J82 human cancer cells = experiment: as above; type: cell-based; parameters: key to Effect on cell cycle kinetics, G0/G1 / Effect on cell cycle kinetics, S / Effect on cell cycle kinetics, G2/M: n.s. means no significant; ** means highly significant; *** very highly significant
Method: as §6, §7

[3] = Hs683, MTT, 72 hours of incubation, read-out: IC50 value
[4] = HCT-15, MTT, 72 hours of incubation, read-out: IC50 value
[5] = J82, MTT, 72 hours of incubation, read-out: IC50 value

Compound: CC(=O)OCC12CC3OC4(O)C(OC(C)CC45NC(=O)CS5)OC3CC1CCC1C2CCC2(C)C(C3=CC(=O)OC3)CCC12O (centres unmarked) [Compound C]
- MTD index [1]: > 40 mg/kg
- IC50 (A549): 1000 to 5000 nM
- IC50 (Hs683; [3]): 1000 to 5000 nM
- IC50 (HCT-15; [4]): 1000 to 5000 nM
- IC50 (J82; [5]): > 10000 nM
- IC50 (U-373 MG): 1000 to 5000 nM
- IC50 (LoVo): 1000 to 5000 nM

Compound: CC(=O)OCC12CC3OC4(O)C(OC(C)CC45N=CCS5)OC3CC1CCC1C2CCC2(C)C(C3=CC(=O)OC3)CCC12O (centres unmarked) [Compound E]
- IC50 (A549): 1000 to 5000 nM
- IC50 (Hs683; [3]): 1000 to 5000 nM
- IC50 (HCT-15; [4]): 1000 to 5000 nM
- IC50 (J82; [5]): > 10000 nM
- IC50 (U-373 MG): 1000 to 5000 nM
- IC50 (LoVo): 1000 to 5000 nM

Compound: C[C@@H]1CC2(N=CCS2)C2(O)O[C@@H]3C[C@]4(C=O)C5CC[C@]6(C)[C@@H](C7=CC(=O)OC7)CC[C@]6(O)[C@@H]5CC[C@H]4C[C@H]3O[C@@H]2O1 (some centres unmarked) [uscharin]
- Effect on cell cycle kinetics, G0/G1 ([2]; HCT-15, 24 h): n.s.
- Effect on cell cycle kinetics, G2/M ([2]; HCT-15, 24 h): n.s.
- Effect on cell cycle kinetics, S ([2]; HCT-15, 24 h): n.s.
- Effect on cell cycle kinetics, G0/G1 ([2]; HCT-15, 72 h): n.s.
- Effect on cell cycle kinetics, G2/M ([2]; HCT-15, 72 h): n.s.
- Effect on cell cycle kinetics, S ([2]; HCT-15, 72 h): **
- cell cycle, S-phase ([2]; HCT-15, 72 hours, highest concentration tested (4.3×10^−8 M uscharin, 1.2×10^−8 M 2″oxo-voruscharin)): accumulation in S-phase
- cell cycle, S-phase (Hs683 human cancer cells; Hs683, 1.7×10^−7 M for 24 and 72 hours, statistically significant): accumulation of cells in S-phase
- cell cycle, G2/M-phase (Hs683 human cancer cells; Hs683, 1.7×10^−7 M for 24 hours): significant accumulation in G2/M-phase
- Effect on cell cycle kinetics, G0/G1 (Hs683 human cancer cells; Hs683, 24 h): n.s.
- Effect on cell cycle kinetics, G2/M (Hs683 human cancer cells; Hs683, 24 h): ***
- Effect on cell cycle kinetics, S (Hs683 human cancer cells; Hs683, 24 h): ***
- Effect on cell cycle kinetics, G0/G1 (Hs683 human cancer cells; Hs683, 72 h): n.s.
- Effect on cell cycle kinetics, G2/M (Hs683 human cancer cells; Hs683, 72 h): n.s.
- Effect on cell cycle kinetics, S (Hs683 human cancer cells; Hs683, 72 h): ***
- Effect on cell cycle kinetics, G0/G1 (J82 human cancer cells; J82, 24 h): n.s.
- Effect on cell cycle kinetics, G2/M (J82 human cancer cells; J82, 24 h): n.s.
- Effect on cell cycle kinetics, S (J82 human cancer cells; J82, 24 h): ***
- Effect on cell cycle kinetics, G0/G1 (J82 human cancer cells; J82, 72 h): n.s.
- Effect on cell cycle kinetics, G2/M (J82 human cancer cells; J82, 72 h): n.s.
- Effect on cell cycle kinetics, S (J82 human cancer cells; J82, 72 h): ***
- cell cycle, S-population (J82 human cancer cells; J82, independent of the concentrations applied or the timing of treatment): significant increase in the S-population
- IC50 (A549; Homo sapiens): 10 to 50 nM
- IC50 (Hs683; Homo sapiens, Hs 683, Hs683, MTT, 72 hours of incubation, read-out: IC50 value): 1 to 5 nM
- IC50 (Hs683; Homo sapiens, Hs 683, Hs683, Table E, concentration used for flow cytometry, chosen in accordance with MTT results, read-out: IC50): 170 nM
- IC30 (Hs683; Hs683, Table E, concentration which kills 30% of the cell population): 43 nM
- IC30 (HCT-15; HCT-15, Table E, concentration which kills 30% of the cell population): 8.5 nM
- IC50 (HCT-15; Homo sapiens, HCT-15, MTT, 72 hours of incubation, read-out: IC50 value): 10 to 50 nM
- IC50 (HCT-15; Homo sapiens, HCT-15, Table E, concentration used for flow cytometry, chosen in accordance with MTT results, read-out: IC50): 43 nM
- IC50 (J82; Homo sapiens, J82, MTT, 72 hours of incubation, read-out: IC50 value): 5000 to 10000 nM
- IC50 (J82; Homo sapiens, J82, Table E, concentration used for flow cytometry, chosen in accordance with MTT results, read-out: IC50): 4300 nM
- IC30 (J82; J82, Table E, concentration which kills 30% of the cell population): 1700 nM
- IC50 (U-373 MG; Homo sapiens, U373 MG): 10 to 50 nM
- IC50 (LoVo; Homo sapiens): 5 to 10 nM

Compound: CC1CC2(NC(CC(=O)c3ccccc3)CS2)C2(O)OC3CC4(CO)C(CCC5C4CCC4(C)C(C6=CC(=O)OC6)CCC54O)CC3OC2O1 (single isomer, unassigned) [Compound I]
- MTD index [1]: 80 mg/kg
- IC50 (A549): 1 to 5 nM
- IC50 (Hs683; [3]): 1 to 5 nM
- IC50 (HCT-15; [4]): 10 to 50 nM
- IC50 (J82; [5]): 1000 to 5000 nM
- IC50 (U-373 MG): 10 to 50 nM
- IC50 (LoVo): 10 to 50 nM

Compound: CC1CC2(NC(CC(=O)c3ccccc3)CS2)C2(O)OC3CC4(CO)C(CCC5C4CCC4(C)C(C6=CC(=O)OC6)CCC54O)CC3OC2O1 (single isomer, unassigned) [Compound H]
- MTD index [1]: 80 mg/kg
- IC50 (A549): 1 to 5 nM
- IC50 (Hs683; [3]): 1 to 5 nM
- IC50 (HCT-15; [4]): 10 to 50 nM
- IC50 (J82; [5]): 1000 to 5000 nM
- IC50 (U-373 MG): 10 to 50 nM
- IC50 (LoVo): 10 to 50 nM

Compound: CC1CC2(N=CCS2)C2(O)OC3CC4(CO)C(CCC5C4CCC4(C)C(C6=CC(=O)OC6)CCC54O)CC3OC2O1 (centres unmarked) [Compound D]
- MTD index [1]: 10 mg/kg
- IC50 (A549): 10 to 50 nM
- IC50 (Hs683; [3]): 1 to 5 nM
- IC50 (HCT-15; [4]): 10 to 50 nM
- IC50 (J82; [5]): 5000 to 10000 nM
- IC50 (U-373 MG): 10 to 50 nM
- IC50 (LoVo): 1 to 5 nM
